Converted amounts (≈) assume the structure as drawn. The source made the active and inactive calls. The rule behind the calls is not given here.
Legend:
Staphylococcus aureus [1] = test: Resistance index, ratio of MIC100 for antibacterial activity against clinically isolated Staphylococcus aureus ATCC29213 assessed as inhibition of bacterial growth at 1/2 times of MIC measured after 24 consecutive passages to MIC100 for antibacterial activity against clinically isolated Staphylococcus aureus ATCC29213; assay type: functional
[2] = Hemolytic activity in rabbit erythrocytes assessed as hemolysis at >8 ug/ml; assay type: toxicity, cell-based, Oryctolagus cuniculus; conditions: erythrocyte, dose > 8 µg/ml
Staphylococcus aureus [3] = test: Anti-biofilm activity against clinically isolated Staphylococcus aureus ATCC29213 assessed inhibition of biofilm formation at 2 ug/ml measured after 12 to 16 hrs incubation by crystal violet staining based analysis; assay type: functional; conditions: time 12-16 hrs
Staphylococcus aureus [4] = test: Antibacterial activity against clinically isolated methicillin-resistant Staphylococcus aureus assessed as inhibition of bacterial growth measured after 16 to 24 hrs by broth microdilution method; assay type: functional; conditions: time 16-24 hrs, read-out: MIC100
Escherichia coli [5] = test: Antibacterial activity against clinically isolated Escherichia coli ATCC25922 assessed as inhibition of bacterial growth measured after 16 to 24 hrs by broth microdilution method; assay type: functional; conditions: time 16-24 hrs, read-out: MIC100
Escherichia coli [6] = test: Anti-biofilm activity against clinically isolated Escherichia coli DE17 assessed inhibition of biofilm formation at 8 ug/ml measured after 12 to 16 hrs incubation by crystal violet staining based analysis; assay type: functional; conditions: time 12-16 hrs
Staphylococcus aureus [7] = test: Anti-biofilm activity against clinically isolated Staphylococcus aureus ATCC29213 assessed inhibition of biofilm formation at 0.5 to 128 ug/ml measured after 12 to 16 hrs incubation by crystal violet staining based analysis; assay type: functional, organism-based; conditions: dose 0.5-128 µg/ml, time 12-16 hrs
Bacillus cereus = test: Antibacterial activity against clinically isolated Bacillus cereus CMCC63303 assessed as inhibition of bacterial growth measured after 16 to 24 hrs by broth microdilution method; assay type: functional; conditions: time 16-24 hrs, read-out: MIC100
Escherichia coli [8] = test: Anti-biofilm activity against clinically isolated Escherichia coli DE17 assessed inhibition of biofilm formation at 16 ug/ml measured after 12 to 16 hrs incubation by crystal violet staining based analysis; assay type: functional; conditions: time 12-16 hrs
Listeria monocytogenes = test: Antibacterial activity against clinically isolated Listeria monocytogenes CICC21662 assessed as inhibition of bacterial growth measured after 16 to 24 hrs by broth microdilution method; assay type: functional; conditions: time 16-24 hrs, read-out: MIC100
Escherichia coli [9] = test: Anti-biofilm activity against clinically isolated Escherichia coli DE17 assessed inhibition of biofilm formation at 0.5 to 128 ug/ml measured after 12 to 16 hrs incubation by crystal violet staining based analysis; assay type: functional, organism-based; conditions: dose 0.5-128 µg/ml, time 12-16 hrs
Bacillus subtilis = test: Antibacterial activity against clinically isolated Bacillus subtilis ATCC6633 assessed as inhibition of bacterial growth measured after 16 to 24 hrs by broth microdilution method; assay type: functional; conditions: time 16-24 hrs, read-out: MIC100
Staphylococcus aureus [10] = test: Antibacterial activity against clinically isolated Staphylococcus aureus ATCC29213 assessed as inhibition of bacterial growth measured after 16 to 24 hrs by broth microdilution method; assay type: functional; conditions: time 16-24 hrs, read-out: MIC100
Staphylococcus aureus [11] = test: Anti-biofilm activity against clinically isolated Staphylococcus aureus ATCC29213 assessed inhibition of biofilm formation at 4 ug/ml measured after 12 to 16 hrs incubation by crystal violet staining based analysis; assay type: functional; conditions: time 12-16 hrs
Escherichia coli [12] = test: Antibacterial activity against clinically isolated Escherichia coli DE17 assessed as inhibition of bacterial growth measured after 16 to 24 hrs by broth microdilution method; assay type: functional; conditions: time 16-24 hrs, read-out: MIC100
RAW264.7 = test: Anti-inflammatory activity against mouse RAW264.7 cells assessed as inhibition LPS-stimulated NO production 0.5 to 4 ug/ml measured after 24 hrs by NO assay kit; assay type: functional, cell-based; conditions: dose 0.5-4 µg/ml
Staphylococcus aureus [13] = test: Biofilm eradication activity against Staphylococcus aureus ATCC29213 assessed biofilm scavenging at 4 ug/ml measured after 12 to 16 hrs incubation by crystal violet staining based analysis; assay type: functional, organism-based; conditions: dose 4.0 µg/ml, time 12-16 hrs
Escherichia coli [14] = test: Biofilm eradication activity against Escherichia coli DE17 assessed biofilm scavenging at 16 ug/ml measured after 12 to 16 hrs incubation by crystal violet staining based analysis; assay type: functional, organism-based; conditions: dose 16.0 µg/ml, time 12-16 hrs
Enterococcus faecalis = test: Antibacterial activity against clinically isolated Enterococcus faecalis ATCC29212 assessed as inhibition of bacterial growth measured after 16 to 24 hrs by broth microdilution method; assay type: functional; conditions: time 16-24 hrs, read-out: MIC100
Staphylococcus aureus [15] = test: Antibacterial activity against clinically isolated Staphylococcus aureus ATCC29213 assessed as inhibition of bacterial growth at 1/2 times of MIC measured after 24 consecutive passages by broth microdilution method; assay type: functional, organism-based
[16] = In vivo toxicity in KM mouse assessed as red blood cells (RBC) in blood collected from eyes of mouse at 15 mg/kg, sc; assay type: organism-based
Staphylococcus aureus [17] = test: Antibacterial activity against clinically isolated Staphylococcus aureus ATCC29213 assessed as inhibition of bacterial growth at 2 times of MIC measured after 18 hrs by broth microdilution method; assay type: functional
[18] = In vivo toxicity in KM mouse assessed as white blood cells (WBC) in blood collected from eyes of mouse at 15 mg/kg, sc; assay type: organism-based
[19] = In vivo toxicity in KM mouse assessed as platelet count (PLT) in blood collected from eyes of mouse at 15 mg/kg, sc; assay type: organism-based
Escherichia coli [20] = test: Biofilm eradication activity against Escherichia coli DE17 assessed biofilm scavenging at 8 ug/ml measured after 12 to 16 hrs incubation by crystal violet staining based analysis; assay type: functional, organism-based; conditions: dose 8.0 µg/ml, time 12-16 hrs
[21] = In vivo toxicity in KM mouse assessed as survival rate at 15 mg/kg, sc relative to control; assay type: organism-based
[22] = In vivo toxicity in KM mouse assessed as survival rate at 10 mg/kg, sc relative to control; assay type: organism-based
[23] = In vivo toxicity in KM mouse assessed as redness and swelling skin at site of compound administration at 20 to 40 mg/kg, sc; assay type: organism-based; conditions: dose 20-40 mg/kg
[24] = In vivo toxicity in KM mouse assessed as survival rate at 40 mg/kg, sc relative to control; assay type: organism-based
Staphylococcus aureus [25] = test: In vivo antibacterial activity against clinically isolated Staphylococcus aureus ATCC29213 infected KM mouse skin abscess model assessed as decrease in bacterial survival in skin at 5 mg/kg, sc measured after 24 hrs by Hematoxylin and Eosin staining based analysis; assay type: functional, organism-based
Staphylococcus aureus [26] = test: Biofilm eradication activity against Staphylococcus aureus ATCC29213 assessed biofilm scavenging at 2 ug/ml measured after 12 to 16 hrs incubation by crystal violet staining based analysis; assay type: functional, organism-based; conditions: dose 2.0 µg/ml, time 12-16 hrs
[27] = In vivo toxicity in KM mouse assessed as survival rate at 5 mg/kg, sc relative to control; assay type: organism-based
[28] = In vivo toxicity in KM mouse assessed as survival rate at 20 mg/kg, sc relative to control; assay type: organism-based
[29] = In vivo toxicity in KM mouse assessed as albumin (ALB) in blood collected from eyes of mouse at 15 mg/kg, sc; assay type: organism-based
Staphylococcus aureus [30] = test: In vivo antibacterial activity against clinically isolated Staphylococcus aureus ATCC29213 infected KM mouse skin abscess model assessed as decrease in bacterial load in skin at 5 mg/kg, sc measured after 24 hrs by Hematoxylin and Eosin staining based analysis; assay type: functional, organism-based
[31] = In vivo toxicity in KM mouse assessed as mean corpuscular volume (MCV) in blood collected from eyes of mouse at 15 mg/kg, sc; assay type: organism-based
[32] = In vivo toxicity in KM mouse assessed as hemoglobin (HGB) in blood collected from eyes of mouse at 15 mg/kg, sc; assay type: organism-based
Staphylococcus aureus [33] = test: In vivo antibacterial activity against clinically isolated Staphylococcus aureus ATCC29213 infected KM mouse skin abscess model assessed as aggregation of inflammatory cells into epidermis and dermis of skin at 5 mg/kg, sc measured after 24 hrs by Hematoxylin and Eosin staining based analysis; assay type: functional, organism-based
[34] = In vivo toxicity in KM mouse assessed as urea (UREA) in blood collected from eyes of mouse at 15 mg/kg, sc; assay type: organism-based
Staphylococcus aureus [35] = test: In vivo antibacterial activity against clinically isolated Staphylococcus aureus ATCC29213 infected KM mouse skin abscess model assessed as reduction in size of abscess in dorsal skin and intradermal tissue at 5 mg/kg, sc measured after 24 hrs by Hematoxylin and Eosin staining based analysis; assay type: functional, organism-based
[36] = In vivo toxicity in KM mouse assessed as creatinine (CREA) in blood collected from eyes of mouse at 15 mg/kg, sc; assay type: organism-based
[37] = In vivo toxicity in KM mouse assessed as hematocrit (HCT) in blood collected from eyes of mouse at 15 mg/kg, sc; assay type: organism-based
[38] = Hemolytic activity in rabbit erythrocytes assessed as hemolysis at 0.5 to 125 ug/ml; assay type: toxicity, cell-based, Oryctolagus cuniculus; conditions: erythrocyte, dose 0.5-125 µg/ml

Cc1onc(-c2ccccc2)c1C(=O)N[C@@H]1C(=O)N2[C@@H]1SC(C)(C)[C@@H]2C(=O)O [OXACILLIN]
Ratio (Staphylococcus aureus [1]): 8

CCN(CC)CCCCCCCCCCCCOc1cc(=O)oc2ccccc12
Activity [2]: Toxic
inhibition at 2 µg/mL (Staphylococcus aureus [3]): 100%
MIC (Staphylococcus aureus [4]): 2 µg/mL (≈ 4.98 µM)
MIC (Escherichia coli [5]): > 256 µg/mL
inhibition at 8 µg/mL (Escherichia coli [6]): 100%
Activity (Staphylococcus aureus [7]): Dose-dependent-effect
MIC (Bacillus cereus): 4 µg/mL (≈ 9.96 µM)
inhibition at 16 µg/mL (Escherichia coli [8]): 100%
MIC (Listeria monocytogenes): 1 µg/mL (≈ 2.49 µM)
Activity (Escherichia coli [9]): Dose-dependent-effect
MIC (Bacillus subtilis): 1 µg/mL (≈ 2.49 µM)
MIC (Staphylococcus aureus [10]): 2 µg/mL (≈ 4.98 µM)
inhibition at 4 µg/mL (Staphylococcus aureus [11]): 100%
MIC (Escherichia coli [12]): > 256 µg/mL
Activity (RAW264.7): Active
Activity (Staphylococcus aureus [13]): Active
Activity (Escherichia coli [14]): Active
MIC (Enterococcus faecalis): 4 µg/mL (≈ 9.96 µM)

CCN(CC)CCCCCCCCCCCCOc1ccc2ccc(=O)oc2c1
Activity (Staphylococcus aureus [15]): Active
Activity [16]: Non-toxic
Activity [2]: Toxic
inhibition at 2 µg/mL (Staphylococcus aureus [3]): 100%
MIC (Staphylococcus aureus [4]): 2 µg/mL (≈ 4.98 µM)
inhibition (INH) (Staphylococcus aureus [17]): 100%
MIC (Escherichia coli [5]): > 256 µg/mL
Activity [18]: Non-toxic
inhibition at 8 µg/mL (Escherichia coli [6]): 100%
Activity [19]: Non-toxic
Activity (Staphylococcus aureus [7]): Dose-dependent-effect
MIC (Bacillus cereus): 4 µg/mL (≈ 9.96 µM)
Activity (Escherichia coli [20]): Active
inhibition at 16 µg/mL (Escherichia coli [8]): 100%
MIC (Listeria monocytogenes): 2 µg/mL (≈ 4.98 µM)
survival [21]: 100%
Activity (Escherichia coli [9]): Dose-dependent-effect
MIC (Bacillus subtilis): 1 µg/mL (≈ 2.49 µM)
survival [22]: 100%
Activity [23]: Toxic
survival [24]: 100%
Activity (Staphylococcus aureus [25]): Active
MIC (Staphylococcus aureus [10]): 1 µg/mL (≈ 2.49 µM)
inhibition at 4 µg/mL (Staphylococcus aureus [11]): 100%
Activity (Staphylococcus aureus [26]): Active
survival [27]: 100%
survival [28]: 100%
MIC (Escherichia coli [12]): > 256 µg/mL
Activity [29]: Non-toxic
Activity (Staphylococcus aureus [30]): Active
Activity [31]: Non-toxic
Activity [32]: Non-toxic
Activity (RAW264.7): Active
Activity (Staphylococcus aureus [33]): Active
Activity [34]: Non-toxic
Activity (Staphylococcus aureus [35]): Active
Activity [36]: Non-toxic
Activity [37]: Non-toxic
MIC (Enterococcus faecalis): 4 µg/mL (≈ 9.96 µM)

O=c1ccc2ccc(O)cc2o1 [UMBELLIFERONE]
MIC (Staphylococcus aureus [4]): > 256 µg/mL
MIC (Escherichia coli [5]): > 256 µg/mL
Activity (Staphylococcus aureus [7]): inactive
MIC (Bacillus cereus): > 256 µg/mL
MIC (Listeria monocytogenes): > 256 µg/mL
Activity (Escherichia coli [9]): inactive
MIC (Bacillus subtilis): > 256 µg/mL
MIC (Staphylococcus aureus [10]): > 256 µg/mL
MIC (Escherichia coli [12]): > 256 µg/mL
Activity [38]: Non-toxic
Activity (RAW264.7): inactive
MIC (Enterococcus faecalis): > 256 µg/mL

Reference: ChEMBL document CHEMBL6182832, “Design and synthesis of coumarin-based amphoteric antimicrobials with biofilm interference and immunoregulation effects” (RSC Med Chem, 2025)
